Read-outs that look alike come from different tables or passages of the source.
Experiments:
phospho-akt (Thr308) = phospho-akt (Thr308) MSD ELISA in PC-3 cells; assay type: cell-based; conditions: Homo sapiens; for EC50: PC-3, 2 h; for inhibition at 1 µM / inhibition at 10 µM: read-out: Percent Inhibition of phospho-Akt (308) By MSD ELISA
Outline: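 Read-out is MSD electrochemiluminescence after lysate capture overnight at 4 degrees and 1 hr RT detection-antibody step. Before lysis, overnight-plated PC-3 cells received three-fold serial dilutions of inhibitor in serum-free medium, with DMSO-only high controls.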

phosphorylated PDK1 = phosphorylated PDK1 (Homo sapiens (Human), UniProt O15530); assay: PDK1 kinase assay (coupled PDK1/AKT/FAM-crosstide, IMAP); assay type: biochemical; conditions: 0.5 nM phosphorylated PDK1, 24 μM ATP; read-out: Inhibition of phospo-PDK1 in vitro IC50
phosphorylated PDK1, sequence (O15530 51-360): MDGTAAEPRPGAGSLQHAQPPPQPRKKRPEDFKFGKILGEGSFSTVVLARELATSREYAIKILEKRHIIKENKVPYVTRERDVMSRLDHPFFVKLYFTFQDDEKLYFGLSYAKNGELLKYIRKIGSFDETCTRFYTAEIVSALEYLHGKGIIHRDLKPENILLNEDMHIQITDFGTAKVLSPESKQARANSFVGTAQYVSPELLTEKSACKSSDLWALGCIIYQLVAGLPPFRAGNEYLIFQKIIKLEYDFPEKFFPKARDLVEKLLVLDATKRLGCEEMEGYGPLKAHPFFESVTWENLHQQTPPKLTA

Phospho-T308 Akt = Phospho-T308 Akt detection using immunoblot (western blot) in PC-3 cells; assay type: cell-based; conditions: for Reduction of Cellular Levels of Akt p308 By Western: 2 hour incubation, concentration not given in Table 2; for inhibition at 2 µM / inhibition at 5 µM: Homo sapiens, read-out: Percent Inhibition of phospho-Akt (308) By Western
Description: A Phospho-T308 Akt detection using immunoblot (western blot) analysis was performed as described below.
PC-3 prostate cells were plated in a 6 well plate in F12K media (Invitrogen, Carlsbad, Calif.) plus 10% FBS (Invitrogen) and placed in incubator overnight. The stock of compound A was a 50 mM solution in DMSO. 1000× dilutions of the compound were made in DMSO. The 1000× dilutions include, 35 mM, 25 mM, 15 mM, 10 mM, 7 mM, 5 mM, and 1 mM. 1 μl of the 1000× dilutions was added to 1 ml F12K media without serum for final concentrations of […]. 1 μl of DMSO was added to 1 ml media with no serum for a control. The 1 ml DMSO or compound plus media was then added to the cells. Following a 2 hour incubation at 37° C., cells were harvested and washed in PBS and subjected to centrifugation at 3,300 rpm for 5 minutes. Cells were lysed in 100 μl of Bio Rad Bioplex buffer containing protease inhibitors (BioRad, Hercules, Calif.) for 30 minutes on ice followed by centrifugation at 13,000 rpm for 5 minutes. The protein content of the supernatant was assayed using DC Protein Assay (BioRad). 25 μl of protein was added to 4× sample buffer (Invitrogen) and sample reducer (Invitrogen) and run on a 4-12% NuPage gel (Invitrogen). Proteins were then transferred to nitrocellulose (Invitrogen). The membrane was blocked in Tris-buffered saline (Sigma, St. Louis, Mo.) plus 0.1% Tween (Sigma) (T-TBS) plus 5% blotting grade milk (BioRad) for 60 minutes. Membranes were then incubated in T-TBS plus 5% BSA (Sigma) plus 1:1000 of anti-phospho akt (Thr 308) (Cell Signaling Technology, Beverly, Mass.) overnight at 4° C. Membranes were washed in T-TBS then incubated in 1:2000 of anti-rabbit-HRP (Cell Signaling) in TTBS plus 5% milk. Membranes were washed again and proteins were visualized with Super Signal West Pico (Pierce, Rockford, Ill.) and using Kodak BioMax MR film (Kodak, Rochester, N.Y.).
Phospho-akt 308 protein bands on the film were quantified using densitometry. An Alpha Imager (Alpha Innotech Corp, San Leandro, Calif.) using AlphaEase FC software version 4.1.0 (Alpha Innotech Corp.) was used to quantitate protein bands. Briefly, a rectangle of equal size was placed around each protein band as well as a background spot on the film. The densitometry values (IDV=Integrated Density Value) obtained for the background spot was then subtracted from the values obtained for the protein bands. These values were used to obtain an EC50 value using non-linear regression analysis in GraphPad Prism Version 4.00 (Graph Pad Prism, San Diego, Calif.). Percent decrease in expression of phosphoh-akt 308 were also measured specifically at 2 μM and 5 μM levels of inhibitor.

dephosphorylated PDK1 = dephosphorylated PDK1 (Homo sapiens (Human), UniProt O15530); assay: PDK1 kinase assay (coupled PDK1/AKT/FAM-crosstide, IMAP); assay type: biochemical; conditions: 25 nM un-phosphorylated PDK1, 24 μM ATP; read-out: Inhibition of dephospo-PDK1 in vitro IC50
dephosphorylated PDK1, sequence (O15530 51-360): as above
Outline: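 The FAM-crosstide phosphorylation readout was IMAP polarization (ex 485/em 530 nm, 2 h binding), with 4-parameter fits of ΔmP data. The reaction ran 30 min at 25 °C with 24 μM ATP, and contained 25 nM phosphatase-treated PDK1 (aa 51–360) plus 30 nM unphosphorylated AKT2-PIFtide and 100 nM substrate. Buffer was 10 mM Tris pH 7.2, 10 mM MgCl2, 0.01% Triton X-100 and 1 mM DTT.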

[1] = PC-3 cells, 2 hours, no serum, read-out: Inhibition of P308 Akt in cells using MSD EC50
[2] = read-out: Reduction of Cellular Levels of Akt p308 By MSD ELISA (EC50 μM)
[3] = PC-3 cells, 2 hours, no serum, read-out: Reduction of Cellular Levels of Akt p308 By MSD ELISA (EC50 μM)

Row | Compound | EC50 (phospho-akt (Thr308); [1]) [µM] | inhibition at 1 µM (phospho-akt (Thr308); PC-3 cells) [%] | inhibition at 10 µM (phospho-akt (Thr308); PC-3 cells) [%] | IC50 (phosphorylated PDK1) [µM] | Reduction of Cellular Levels of Akt p308 By Western (Phospho-T308 Akt) | inhibition at 2 µM (Phospho-T308 Akt) [%] | IC50 (dephosphorylated PDK1) [µM] | inhibition at 5 µM (Phospho-T308 Akt) [%] | EC50 (phospho-akt (Thr308); [2]) [µM] | EC50 (phospho-akt (Thr308); [3]) [µM] | EC50 (phospho-akt (Thr308); read-out: Inhibition of P308 Akt in cells using MSD EC50) [µM]
1 | O=C(NCc1cc(-c2c[nH]c3ncccc23)cs1)c1cccn(Cc2ccc(F)c(F)c2)c1=O [Cpd 17] | 1 to 5 | 25 to 75 | > 75 | < 0.5 | bbb (inhibition of more than 75%) | > 75 | – | – | – | – | –
2 | O=C(NCc1noc(-c2c[nH]c3ncccc23)n1)c1cccn(Cc2ccc(Cl)c(F)c2)c1=O [Cpd 304] | 1 to 5 | < 25 | > 75 | < 0.5 | bbb (inhibition of more than 75%) | – | < 0.5 | > 75 | – | – | –
3 | O=C(Nc1c(F)cccc1Oc1ccc2[nH]c(=O)[nH]c2c1)c1cccn(Cc2ccc(F)c(F)c2)c1=O [Cpd 133] | – | < 25 | 25 to 75 | < 0.5 | bbb (inhibition of more than 75%) | – | < 0.5 | > 75 | – | – | –
4 | O=C(O)c1cnc2[nH]cc(-c3ccc(CNC(=O)c4cccn(Cc5ccc(F)c(F)c5)c4=O)s3)c2c1 [Cpd 21] | – | – | – | < 0.5 | b (inhibition of less 25%) | < 25 | – | – | > 5 | – | –
5 | CNC(=O)C[C@@H](NC(=O)c1cccn(Cc2ccc(F)c(F)c2)c1=O)c1ncc(-c2c[nH]c3ncccc23)s1 [Cpd 137] | > 5 | < 25 | > 75 | < 0.5 | bbb (inhibition of more than 75%) | – | < 0.5 | > 75 | – | – | –
6 | O=C(NCc1ccc(-c2c[nH]c3ncc(F)cc23)s1)c1cccn(Cc2ccc(F)c(F)c2)c1=O [Cpd 11] | < 1 | – | – | < 0.5 | bbb (inhibition of more than 75%) | – | – | > 75 | – | < 1 | –
7 | CC(=O)NC[C@@H](NC(=O)c1cccn(Cc2ccc(F)c(F)c2)c1=O)c1nc(-c2c[nH]c3ncccc23)cs1 [Cpd 136] | – | – | – | – | – | – | – | 25 to 75 | – | – | –
8 | CNC(=O)C[C@@H](NC(=O)c1cccn(Cc2ccc(F)c(F)c2)c1=O)c1ccc(-c2c[nH]c3ncccc23)s1 [Cpd 18] | 1 to 5 | – | – | < 0.5 | bb (inhibition of from 25% to 75%) | 25 to 75 | – | – | – | 1 to 5 | –
9 | NC(=O)C[C@@H](NC(=O)c1cccn(Cc2ccc(F)c(F)c2)c1=O)c1ccc(-c2c[nH]c3ncccc23)s1 [Cpd 19] | – | – | – | < 0.5 | bbb (inhibition of more than 75%) | > 75 | – | – | 1 to 5 | – | 1 to 5
10 | O=C(NCc1cccc(-c2c[nH]c3ncc(CO)cc23)c1)c1cccn(Cc2ccc(F)c(F)c2)c1=O [Cpd 225] | – | – | – | – | bbb (inhibition of more than 75%) | – | < 0.5 | > 75 | – | < 1 | –
11 | O=C(NCc1cccc(-c2ccc3nccn3c2)c1)c1cccn(Cc2ccc(F)c(F)c2)c1=O [Cpd 336] | – | 25 to 75 | > 75 | – | – | – | – | > 75 | – | – | –
12 | O=C(NCc1ncc(-c2c[nH]c3ncccc23)s1)c1cccn(Cc2ccc(F)c(F)c2)c1=O [Cpd 132] | < 1 | 25 to 75 | > 75 | < 0.5 | bbb (inhibition of more than 75%) | – | – | > 75 | – | – | –
13 | O=C(NCc1noc(-c2c[nH]c3ncccc23)n1)c1cccn(Cc2cccc(Cl)c2)c1=O [Cpd 294] | – | – | – | < 0.5 | bb (inhibition of from 25% to 75%) | – | < 0.5 | 25 to 75 | – | – | –
14 | NC(=O)C[C@@H](NC(=O)c1cccn(Cc2ccc(F)c(F)c2)c1=O)c1nnc(-c2c[nH]c3ncccc23)o1 [Cpd 289] | – | < 25 | < 25 | – | b (inhibition of less 25%) | – | < 0.5 | < 25 | – | – | –
15 | O=C(NCc1cccc(-c2ccc3n[nH]c(=O)n3c2)c1)c1cccn(Cc2ccc(F)c(F)c2)c1=O [Cpd 216] | – | – | – | 0.5 to 10 | bb (inhibition of from 25% to 75%) | – | < 0.5 | 25 to 75 | – | – | –
16 | O=C(NCc1ccc(-c2c[nH]c3ncc(CO)cc23)s1)c1cccn(Cc2ccc(F)c(F)c2)c1=O [Cpd 12] | < 1 | 25 to 75 | > 75 | < 0.5 | bb (inhibition of from 25% to 75%) | 25 to 75 | – | – | – | – | –
17 | O=C(NCc1cccc(-c2ccc3nccn3c2)c1)c1cccn(Cc2ccc(F)c(F)c2)c1=O [Cpd 9] | – | – | – | < 0.5 | bbb (inhibition of more than 75%) | – | < 0.5 | – | – | – | –
18 | O=C(NCc1cccc(-c2c[nH]c3ncc(F)cc23)c1)c1cccn(Cc2ccc(F)c(F)c2)c1=O [Cpd 10] | 1 to 5 | 25 to 75 | > 75 | < 0.5 | bbb (inhibition of more than 75%) | – | – | > 75 | – | – | –
19 | CC(C)[C@@H](COc1ccc2[nH]c(=O)[nH]c2c1)NC(=O)c1cccn(Cc2ccc(F)c(F)c2)c1=O [Cpd 320] | – | < 25 | 25 to 75 | 0.5 to 10 | – | – | < 0.5 | – | – | – | –
20 | COC(=O)C[C@H](NC(=O)c1cccn(Cc2ccc(F)c(F)c2)c1=O)c1nnc(-c2c[nH]c3ncccc23)o1 [Cpd 291] | < 1 | 25 to 75 | > 75 | < 0.5 | bbb (inhibition of more than 75%) | – | – | > 75 | – | – | –
21 | CNC(=O)C[C@@H](NC(=O)c1cccn(Cc2ccc(F)c(F)c2)c1=O)c1nnc(-c2c[nH]c3ncccc23)o1 [Cpd 299] | – | < 25 | < 25 | < 0.5 | bb (inhibition of from 25% to 75%) | – | – | 25 to 75 | – | – | –
22 | O=C(NCCOc1ccc2[nH]c(=O)[nH]c2c1)c1cccn(Cc2ccc(F)c(F)c2)c1=O [Cpd 113] | > 5 | – | – | < 0.5 | – | – | < 0.5 | – | – | – | –
23 | O=C(c1cccn(Cc2ccc(F)c(F)c2)c1=O)N1CCc2ccc(-c3c[nH]c4ncccc34)cc2C1 [Cpd 232] | > 5 | – | – | 0.5 to 10 | – | – | 0.5 to 10 | – | – | – | –
